Reference: patent publication US8552052B2, “Use of diindolylmethane-related indoles for the treatment and prevention of respiratory syncytial virus associated conditions” (BioResponse, L.L.C., priority 2004, dated 2013)
“Also recorded” adds a separate entry of the source.

Experiments:
cysteinyl leukotrienes = assay: Cysteinyl leukotrienes ELISA in bronchoalveolar lavage fluid (BALF) of RSV infected BALB/c mice; type: in vivo; details: oral, SC low dose and SC high dose DIM; 6 and 10 days pi; vs RSV-infected, untreated mice; FIG. 7
Experimental: (§1) The Following Experimental BALB/c Groups and Treatment Protocol Using DIM were Studied: • 1. RSV infected positive control group, infected with RSV and injected subcutaneously (SC) once daily with DMSO/Phosphate Buffered Saline (PBS) vehicle. • 2. RSV infected, Low dose Parenteral DIM group (15 mg/kg/day), injected SC once daily with DIM suspension • 3. RSV infected, High dose DIM Group (150 mg/kg/day), injected SC once daily with DIM suspension • 4. RSV infected, orally treated DIM group (250 mg/kg/day from absorption enhanced DIM [Example 6.1]), added to powdered feed • 5. Uninfected negative control group, nasally administered vehicle only, and injected subcutaneously (SC) once daily with DMSO/PBS vehicle
(§2) Mouse treatment, infection and harvest. […]
To determine viral titer, the lung was homogenized in DMEM supplemented with 2% FBS (2 ml DMEM per 100 mg tissue) in cold. […] Multiple, 4 μm thick sections were stained with haematoxylin & eosin (H&E) and scored for cellular inflammation under light microscopy by two independent researchers. Inflammatory infiltrates were scored by enumerating the layers of inflammatory cells surrounding the vessels and bronchioles. […] A total of about 20 spaces per lung were counted for each animal. […] The concentration of cysteinyl leukotrienes conjugates in the BALF was determined by an ELISA kit following the manufacturer's protocol (R&D Systems, Minneapolis, Minn.). […]

breast cancer cells = details: cited from earlier work
RSV Long strain = assay: Pulmonary viral assay (pfu in lung homogenate) in RSV infected BALB/c mice; type: in vivo
Experimental: as §1
Animals, cells, and viruses. Pathogen-free 8-10 week old female BALB/c mice, weighing between 16 and 20 g, were purchased from Charles River Laboratories. All mice were housed in cages covered with barrier filters and are fed mouse chow and water ad libitum. HeLa cells are maintained in Eagle's minimal essential medium supplemented with glutamine, gentamicin, penicillin G, and 10% fetal bovine serum.
RSV stock. RSV Long strain was grown on HEp-2 monolayers (American Type Culture Collection, Manassas, Va.). The extracellular media containing liberated progeny virus was collected at about 70 hr. The virus was purified and concentrated by precipitation with polyethylene glycol (MW 8,000) and sucrose gradient centrifugation. The final preparation had infectious titer in the range of 10^8-10^9 pfu/ml and was stored frozen at −80° C. in small portions. All infectious viral titers (plaque forming units [pfu]) were determined by agarose plaque assay on HEp-2 monolayers with neutral red staining using standard procedures. Another suitable strain is the A2 strain of RSV (American Type Culture Collection).
as §2
Pulmonary viral assay and clinical measurements. […] Respiratory rates (breaths per min) were determined by counting over a period of 2-3 mins. […]

[1] = tested on: chemically induced forms of breast cancer; details: orally administered, animals; cited from earlier work
[2] = tested on: Mitogen Activated Protein Kinase (MAPK) cell signaling pathway; details: cell culture; cited from earlier work
bRSV = assay: Experimental bovine Respiratory Syncytial Virus (bRSV) infection in calves; type: in vivo, Male Jersey calves; details: vs vehicle only treated positive control animals
[3] = water and lipid; cited from earlier work
[4] = tested on: apoptosis-specific nucleosomes; assay: Nucleosome ELISA in lung of RSV infected BALB/c mice; type: in vivo; details: oral and subcutaneous DIM, FIG. 5B
Experimental: as §1
Mouse treatment, infection and harvest. Intranasal application of RSV in BALB/c mice followed an established procedure (Bitko et al., 2005, Nat Med. 11(1):50-5) and causes predictable pulmonary disease and inflammation. For RSV infection, RSV stock was diluted such that each mouse was given 10^7 pfu (plaque forming unit) of the virus intranasally. […]
Nucleosomes released in the cytoplasm during apoptosis were detected by a nucleosome ELISA assay kit (Calbiochem Nucleosome ELISA kit, Cat. No. QIA25, San Diego, Calif.) according to the manufacturer's protocol (User Protocol Q1A25 Rev. 28 Sep. 2005 RFH).

Structure (SMILES): c1ccc2c(Cc3c[nH]c4ccccc34)c[nH]c2c1 [DIM, 3,3′-diindolylmethane]
- leukotrienes in broncho-alveolar lung fluid (BALF) (cysteinyl leukotrienes): significant reduction in leukotriene levels; also recorded: Reduction in pulmonary leukotriene levels; also recorded: significantly lower levels of lung inflammation associated leukotrienes
- estrogenic activity (breast cancer cells): estrogenic
- RSV growth in the lung / viral counts in lung tissue (RSV Long strain; DIM administered orally or parenterally, BALB/c mice): inhibit RSV growth in the lung; also recorded: significant reduction in viral counts in lung tissue
- pulmonary viral count (RSV Long strain; SC administered DIM, 10 days pi, vs vehicle treated, RSV-infected controls, FIG. 4): significantly reduced pulmonary viral count
- intrapulmonary replication of nasally administered RSV virus (RSV Long strain; oral 250 mg/kg/day and SC 15 and 150 mg/kg/day, 6 days post infection (pi), vs vehicle treated RSV-infected controls, FIG. 4): significantly reduced the intrapulmonary replication
- tumor growth [1]: inhibits the growth of certain chemically induced forms of breast cancer
- MAPK cell signaling pathway activation [2]: activate the Mitogen Activated Protein Kinase (MAPK) cell signaling pathway
- evidence of active bRSV infection (bRSV): less evidence of active bRSV infection
- solubility [3]: low solubility
- apoptosis in mouse lung: apoptosis-specific nucleosomes [4]: increased presenence of apoptosis-specific nucleosomes
